For the experiment, the target named is T1, VPAC1 (Homo sapiens, UniProt P32241).
T1 construct: expressed in transfected cells; host or cells: CHO
T1 sequence (P32241 31-457): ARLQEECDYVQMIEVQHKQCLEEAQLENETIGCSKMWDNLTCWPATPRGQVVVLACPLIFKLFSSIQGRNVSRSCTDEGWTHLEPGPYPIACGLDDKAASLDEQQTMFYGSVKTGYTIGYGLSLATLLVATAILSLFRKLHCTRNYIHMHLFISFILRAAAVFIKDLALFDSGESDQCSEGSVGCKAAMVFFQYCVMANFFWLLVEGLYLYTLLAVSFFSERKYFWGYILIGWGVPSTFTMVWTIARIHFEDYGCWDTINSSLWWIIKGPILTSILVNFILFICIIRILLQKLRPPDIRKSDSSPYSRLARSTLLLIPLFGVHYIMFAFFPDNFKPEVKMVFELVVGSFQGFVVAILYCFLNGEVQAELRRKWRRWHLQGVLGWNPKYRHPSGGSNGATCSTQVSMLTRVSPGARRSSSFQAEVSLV
Nature of the experiment: Elevation of cAMP, agonist activity on VPAC1. It is filed as cell-based. The conditions noted are these: FIG. 3. The text has this:
The signal is detected using a scintillation counter.

As to PACAP-27, the “agonist activity on VPAC1” value is given as “potent agonist”.
